Measured values: PMC10135569, “Does Enhanced Structural Maturity of hiPSC-Cardiomyocytes Better for the Detection of Drug-Induced Cardiotoxicity?” (Biomolecules, 2023)

Assays:
[1] = listed in Supplementary Table S1; no reference given; cited from earlier work
[2] = test system: hiPSC-CMs (iCell2 Cardiomyocytes) 2D monolayers; experiment: Membrane potential (action potential) recordings with FluoVolt voltage-sensitive dye on the CellOPTIQ platform; format: cell-based, human; details: for activity at 0.1 µM / activity at 0.3 µM / activity at 3 µM / activity at 1 µM: Homo sapiens, Cardiomyocyte, 0.5 h, 30 min, delta over DMSO 0.1%
In short: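 iCell2 hiPSC-CM monolayers (50,000 cells/well on fibronectin or Matrix Plus, days 5–6) were loaded with FluoVolt (1:1000, 20 min, 37 °C) and imaged at 37 °C with 470 nm excitation and 510–560 nm emission sampled at 10 kHz. Spontaneous action potentials were recorded for 10 s at baseline and 30 min after drug, with one of four concentrations per well (n = 8).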

[3] = test system: hiPSC-CMs (iCell2 Cardiomyocytes) 2D monolayers; experiment: Contractility measurements using video imaging (ContractilityTool / MUSCLEMOTION); format: cell-based, human; details: for activity at 0.1 µM / activity at 0.3 µM / activity at 1 µM / activity at 3 µM: Homo sapiens, Cardiomyocyte, 0.5 h, 30 min, delta over DMSO 0.1%
In short: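 Monolayers on fibronectin or Matrix Plus coating, tested on days 5–6 in serum-free medium. Four concentrations, one per well, n = 8, with vehicle control.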

[4] = FM monolayer, read-out: Trise (%DD)
[5] = MM monolayer, read-out: APD30 (%DD)
[6] = MM monolayer, read-out: APD90 (%DD)
[7] = MM monolayer, read-out: CL (%DD)
[8] = MM monolayer, read-out: Trise (%DD)
[9] = read-out: APD30 (%DD), FM monolayer
[10] = read-out: APD90 (%DD), FM monolayer
[11] = read-out: CL (%DD), FM monolayer
[12] = read-out: Trise (%DD), FM monolayer
[13] = FM monolayer, read-out: CtAmp (%DD)
[14] = FM monolayer, read-out: CtD50 (%DD)
[15] = MM monolayer, read-out: CtAmp (%DD)
[16] = MM monolayer, read-out: CtD50 (%DD)

Structure (SMILES): C[C@H]1O[C@@H](O[C@H]2[C@@H](O)C[C@H](O[C@H]3[C@@H](O)C[C@H](O[C@H]4CC[C@@]5(C)[C@H](CC[C@@H]6[C@@H]5C[C@@H](O)[C@]5(C)[C@@H](C7=CC(=O)OC7)CC[C@]65O)C4)O[C@@H]3C)O[C@@H]2C)C[C@H](O)[C@@H]1O [Digoxin]
- Free Cmax [1]: 2 nM
- activity at 0.1 µM [2, 4]: 100 ± 21.3%
- activity at 0.1 µM [2, 5]: 91 ± 1.2%
- activity at 0.1 µM [2, 6]: 101 ± 1.3%
- activity at 0.1 µM [2, 7]: 102 ± 0.4%
- activity at 0.1 µM [2, 8]: 127 ± 10.8%
- activity at 0.3 µM [2, 5]: 68 ± 2.5%
- activity at 0.3 µM [2, 6]: 89 ± 1%
- activity at 0.3 µM [2, 7]: 100 ± 0.8%
- activity at 0.3 µM [2, 8]: 161 ± 38.2%
- activity at 0.1 µM [2, 9]: 84 ± 1.8%
- activity at 0.3 µM [2, 9]: 65 ± 2.8%
- activity at 0.1 µM [2, 10]: 95 ± 0.6%
- activity at 0.3 µM [2, 10]: 88 ± 2.1%
- activity at 0.1 µM [2, 11]: 98 ± 0.7%
- activity at 0.3 µM [2, 11]: 98 ± 0.9%
- activity at 0.3 µM [2, 12]: 74 ± 9.2%
- effect on APD (in words) ([2]; both groups): decreased
- electrical activity of the monolayers at higher concentrations ([2]; higher concentrations, FM and MM): electrical quiescence
- activity at 0.1 µM [3, 13]: 88 ± 6.1%
- activity at 0.1 µM [3, 14]: 90 ± 1.3%
- activity at 0.3 µM [3, 13]: 18 ± 11.1%
- activity at 0.3 µM [3, 14]: 51 ± 15.9%
- activity at 0.1 µM [3, 15]: 127 ± 26.2%
- activity at 0.1 µM [3, 16]: 97 ± 2%
- activity at 0.3 µM [3, 15]: 12 ± 3.3%
- activity at 0.3 µM [3, 16]: 43 ± 1.8%
- activity at 1 µM [3, 15]: 13 ± 5.3%
- activity at 1 µM [3, 16]: 40 ± 3.6%
- activity at 3 µM [3, 15]: 7 ± 1.9%
- activity at 3 µM [3, 16]: 43 ± 3.4%
- increasing the amplitude of contraction (positive inotropy) ([3]; both experimental groups): ineffective

Structure (SMILES): O=C1CCCN1CC#CCN1CCCC1 [Oxotremorine]
- activity at 3 µM [2, 4]: 132 ± 11.2%
- activity at 0.1 µM [2, 5]: 104 ± 1.7%
- activity at 0.1 µM [2, 6]: 104 ± 1%
- activity at 0.1 µM [2, 7]: 111 ± 2.8%
- activity at 0.1 µM [2, 8]: 124 ± 18.7%
- activity at 0.3 µM [2, 5]: 110 ± 3.4%
- activity at 0.3 µM [2, 6]: 108 ± 1.1%
- activity at 0.3 µM [2, 7]: 115 ± 3.3%
- activity at 0.3 µM [2, 8]: 144 ± 26.3%
- activity at 1 µM [2, 5]: 110 ± 2.8%
- activity at 1 µM [2, 6]: 114 ± 1.1%
- activity at 1 µM [2, 7]: 120 ± 1.4%
- activity at 1 µM [2, 8]: 117 ± 17%
- activity at 3 µM [2, 5]: 115 ± 3.8%
- activity at 3 µM [2, 6]: 113 ± 1.2%
- activity at 3 µM [2, 7]: 123 ± 1.1%
- activity at 3 µM [2, 8]: 158 ± 32%
- activity at 0.1 µM [2, 9]: 106 ± 2.3%
- activity at 0.3 µM [2, 9]: 111 ± 3.3%
- activity at 1 µM [2, 9]: 110 ± 4.4%
- activity at 3 µM [2, 9]: 107 ± 3.4%
- activity at 0.1 µM [2, 10]: 103 ± 1.3%
- activity at 0.3 µM [2, 10]: 105 ± 2.8%
- activity at 1 µM [2, 10]: 111 ± 1.7%
- activity at 3 µM [2, 10]: 101 ± 2.8%
- activity at 0.1 µM [2, 11]: 117 ± 1.3%
- activity at 0.3 µM [2, 11]: 122 ± 1.8%
- activity at 1 µM [2, 11]: 121 ± 2.9%
- activity at 3 µM [2, 11]: 111 ± 3.6%
- activity at 0.1 µM [2, 12]: 155 ± 41.3%
- activity at 0.3 µM [2, 12]: 145 ± 24.3%
- activity at 1 µM [2, 12]: 117 ± 13.3%
- effect on beating rate / spontaneous rate (in words) ([2]; both FM and MM, concentration not given): decrease
- changes in the APD ([2]; both groups (FM and MM)): < 10%
- activity at 0.1 µM [3, 13]: 140 ± 19.7%
- activity at 0.1 µM [3, 14]: 108 ± 1.9%
- activity at 0.3 µM [3, 13]: 105 ± 16.5%
- activity at 0.3 µM [3, 14]: 112 ± 2.5%
- activity at 1 µM [3, 13]: 117 ± 14.5%
- activity at 1 µM [3, 14]: 116 ± 2.8%
- activity at 3 µM [3, 13]: 166 ± 17.6%
- activity at 3 µM [3, 14]: 110 ± 1.6%
- activity at 0.1 µM [3, 15]: 106 ± 11.7%
- activity at 0.1 µM [3, 16]: 116 ± 2.1%
- activity at 0.3 µM [3, 15]: 97 ± 12.9%
- activity at 0.3 µM [3, 16]: 117 ± 1.1%
- activity at 1 µM [3, 15]: 105 ± 10.2%
- activity at 1 µM [3, 16]: 118 ± 1.6%
- activity at 3 µM [3, 15]: 103 ± 7.4%
- activity at 3 µM [3, 16]: 120 ± 2.3%
